This is an account of results in patent US4713374A, “Ganglioside derivatives” (priority 1984, dated 1987).

The experiment relates to PC12 cells. Nature of the experiment: Neurite sprouting in PC12 cells. The note with it: 10^-6 M, serum-free vehicle with 50 ng/ml NGF, third day; controls 21.5. Format: cell-based.
Procedure: The cells are then washed three times in a serum-free vehicle. […] This effect is evaluated by counting the number of cells with neurites at the third day.
Consider `CCCCCCCCCCCCC/C=C/[C@@H](O)[C@H](CO[C@@H]1O[C@H](CO)[C@@H](O[C@@H]2O[C@H](CO)[C@H](O[C@@H]3O[C@H](CO)[C@H](O)[C@H](O[C@@H]4O[C@H](CO)[C@H](O)[C@H](O)[C@H]4O)[C@H]3NC(C)=O)[C@H](O[C@]3(C(=O)OC(C)C)C[C@H](O)[C@@H](NC(C)=O)[C@H]([C@H](O)[C@H](O)CO)O3)[C@H]2O)[C@H](O)[C@H]1O)NC(=O)CCCCCCCCCCCCCCCCC` [Isopropylic ester of GM1, Isopropyl ester of the ganglioside GM1], for which the “% of the no. of cells with neurites at 3rd day” value (“% of the no. of cells” for short) was determined as 37.0%.

Consider `CCCCCCCCCCCCC/C=C/[C@@H](O)[C@H](CO[C@@H]1O[C@H](CO)[C@@H](O[C@@H]2O[C@H](CO)[C@H](O[C@@H]3O[C@H](CO)[C@H](O)[C@H](O[C@@H]4O[C@H](CO)[C@H](O)[C@H](O)[C@H]4O)[C@H]3NC(C)=O)[C@H](O[C@]3(C(=O)N(C)C)C[C@H](O)[C@@H](NC(C)=O)[C@H]([C@H](O)[C@H](O)CO)O3)[C@H]2O)[C@H](O)[C@H]1O)NC(=O)CCCCCCCCCCCCCCCCC` [Dimethylamide of GM1, Dimethylamide of the ganglioside GM1], for which the “% of the no. of cells” value amounted to 34.3%.

On to `CCCCCCCCCCCCC/C=C/[C@@H](O)[C@H](CO[C@@H]1O[C@H](CO)[C@@H](O[C@@H]2O[C@H](CO)[C@H](O[C@@H]3O[C@H](CO)[C@H](O)[C@H](O[C@@H]4O[C@H](CO)[C@H](O)[C@H](O)[C@H]4O)[C@H]3NC(C)=O)[C@H](O[C@]3(C(=O)NCCCN(C)C)C[C@H](O)[C@@H](NC(C)=O)[C@H]([C@H](O)[C@H](O)CO)O3)[C@H]2O)[C@H](O)[C@H]1O)NC(=O)CCCCCCCCCCCCCCCCC` [3-dimethylaminopropyl-1-amide of GM1, 3-dimethylaminopropyl-1-amide of the ganglioside GM1], for which the “% of the no. of cells” value amounted to 37.3%.
